{
  "source": "patent US11553713B2",
  "about": "“Polyalcohol, carbohydrate, nucleobase and nucleotide compositions and uses thereof” (Chunbo Zhang, priority 2015, dated 2023)",
  "key": {"mosquitoes": {"tested_on": "mosquitoes", "test": "Toxicity of rFOH by air exposure (container protected with a net to prevent ingestion)", "assay_type": "in vivo", "protocol": "The CPDA contained 3.33 g sodium citrate, 0.376 g citric acid, 4.02 g glucose, 0.28 g sodium monobasic phosphate, and 0.346 g adenine in 1 liter of solution. (2R)-3-fluoropropane-1,2-diol (rFOH) was used as the active agent at a concentration of 1%.\n100 mosquitoes were placed in a 6-liter cage with a container containing 1% rFOH in 10% sucrose with CPDA for 48 hours at room temperature (25-28° C.). The container was protected with a net to prevent ingestion of rFOH by the mosquitoes. […] The same result was obtained even when 10% of rFOH was used."}, "female mosquitoes": {"tested_on": "female mosquitoes", "test": "Efficacy by ingestion: feeder test in 6-liter cage, death rate of female mosquitoes", "assay_type": "in vivo", "settings": "for death after 24 hours of feeding: fasted 24 hours", "text": "Female mosquitoes were used in the experiment because only female mosquitoes bite humans and animals and transmit infectious diseases.\n(§1) (2R)-3-fluoropropane-1,2-diol (rFOH) was used as the active agent at various concentrations. A sugar feeder containing 10% sucrose, which is a regular mosquito feeder in a laboratory setting, was used as a regular food source in free choice studies. A free choice study allows the pests to select which feeder to feed on when given two or more choices.\nIn a two-choice test, a 6-liter cage was supplied with two feeders, one contained 5% rFOH and 10% sucrose in CPDA and the other one contained 10% sucrose without any rFOH or CPDA. 100 female mosquitoes were placed in the cage having the two feeders such that the mosquitoes chose freely which feeder to feed on. After 24 hours of feeding in the cage, over 80% of mosquitoes were dead. […] When the concentration of rFOH was reduced to 1% or 0.15%, its effectiveness remained the same. Over 80% of mosquitoes were dead due to 24 hours of feeding with rFOH.\nSubsequent to 24 hours of feeding, rFOH feeder was removed from the cage and a regular sugar feeder (10% sucrose) was provided. In the next day, 5-20% of residual death was observed, indicating a delayed death after rFOH ingestion.\nIn a further study, mosquitoes were fasted for 24 hours before feeding to ensure that all mosquitoes have the capacity for food intake. […] Thus, fasting is not a cause of mosquito death during a series of experiments.\nThe experiments determined that 0.1% rFOH was sufficient to achieve 50% death (LD50) under various conditions. In one study, 100 mosquitoes were caged in a 6-liter space and fasted for 24 hours. Subsequently, the mosquitoes were fed on two feeders giving their free choices for 0.1% rFOH containing 10% sucrose in CPDA or 10% sucrose without rFOH for 24 hours, resulting in 43% death. In a parallel study in which the cage was supplied with a single feeder, the 0.1% rFOH feeder containing 10% sucrose in CPDA, which caused 44% of death after 24 hours of feeding.\nSimilar experiments as disclosed above were performed with various rFOH concentrations under various conditions. The rFOH composition contained 10% sugar in CPDA solution unless specified otherwise.\nSimilar experiments as disclosed above were performed on female mosquitoes to determine LD50. The rFOH composition contained 10% sugar in CPDA solution unless specified otherwise.\nSimilar experiments as disclosed above were performed on female mosquitoes using different active agents at various concentrations. The active agent composition contained 10% sugar in CPDA solution unless specified otherwise."}, "male mosquitoes": {"tested_on": "male mosquitoes", "test": "Efficacy by ingestion: feeder test, death rate of male mosquitoes", "assay_type": "in vivo", "settings": "0.1% rFOH, 10% sugar in CPDA, 24 hrs, 24 hrs fasting, sugar feeder provided for free choice", "protocol": "as §1\nSimilar experiments as disclosed above were performed on female mosquitoes and male mosquitoes. The rFOH composition contained 10% sugar in CPDA solution unless specified otherwise."}, "[1]": {"tested_on": "Escherishia coli DH5α transformed with a pcDNA3 plasmid (DH5P)", "test": "MIC test, broth microdilution (CLSI M07-A9)", "assay_type": "cell-based", "settings": "Tryptic soy broth, 37° C. for 24 hrs", "protocol": "(§2) The effects of pesticides disclosed herein on various bacteria were tested by determining the minimal inhibitory concentration (MIC) of the pesticides. MIC of an antimicrobial agent is the lowest concentration of the antimicrobial agent that inhibits a given bacterial isolate from multiplying and producing visible growth in the test system. The MIC of rFOH and BrOH was determined in the laboratory by incubating a known quantity of bacteria with a series of dilutions of the active agents and comparing their effects with those of known antimicrobial agents. Table 6 lists the representative bacterial strains and the conditions in MIC tests. Antimicrobial tests of the active agents were conducted according to “Methods for Dilution Antimicrobial Susceptibility Tests for Bacteria That Grow Aerobically” by Clinical and Laboratory Standards Institute (CLSI) (CLSI document M07-A9, 2012). In the study, methicillin/oxacillin resistant Staphylococcus aureus (MRSA) strain (ATCC 43300) was routinely under screening with 4 ug/ml oxacillin. Escherishia coli DH5α was a nonpathogenic laboratory strain. […] When the DH5α/plasmid (DH5P) colony was used, the colony was maintained in the presence of 100 ug/ml ampicillin.\n(§3) MIC tests were conducted in 96 well microtiter plates with a total volume of 150 ul broth in each well. The directly colony suspension method (CLSI document M07-A9, 2012) was applied to obtain MIC for antimicrobial tests of the active agents. After colonies were freshly incubated overnight, colonies were suspended in sterile water to adjust the inoculum to a turbidity equivalent to a 0.5 McFarland standard (corresponding to approximately 1.5×10^8 CFU/ml). Within 10 minutes, the inoculum was adjusted by dilution in broth to reach a final concentration of 5×10^5 CFU/ml. A series of various concentrations of the active agents were applied to determine the MIC. In the same microtiter plate, an internal standard formulated by a concentration series of standard antibiotic agent was incubated in parallels to allow for back-to-back comparison."}, "Escherishia coli DH5α": {"tested_on": "Escherishia coli DH5α", "test": "MIC test, broth microdilution (CLSI M07-A9)", "assay_type": "cell-based", "settings": "Tryptic soy broth, 37° C. for 24 hrs", "protocol": "as §2, §3"}, "[2]": {"tested_on": "Methicillin/oxacillin resistant Staphylococcus aureus (MRSA) strain (ATCC 43300)", "test": "MIC test, broth microdilution (CLSI M07-A9)", "assay_type": "cell-based", "settings": "Mueller Hinton broth with 2% NaCl and 50 ug/ml CaCl2, 35° C. for 24 hrs", "protocol": "as §2, §3"}},
  "note": "“And” between values parts separate entries of the source, which are not always exact repeats. Equal values may be shown once.",
  "data": [
    {"smiles": "OC[C@@H](O)CF", "note": "[rFOH, (2R)-3-fluoropropane-1,2-diol]", "values": [
      {"measurement": "death of mosquito by air exposure", "setting": "mosquitoes; 1% rFOH in 10% sucrose with CPDA, container protected with net, 48 hours, room temperature (25-28° C.)", "value": "No death"},
      {"measurement": "death of pests when exposed but not ingested", "setting": "mosquitoes; concentration 100-fold as high as the LD50, not ingested", "value": "no death"},
      {"measurement": "Death Rate", "setting": "female mosquitoes; 0.1% rFOH, 5% sugar, CPDA, 5% maltose, 24 hrs, 24 hrs fasting, sugar feeder provided for free choice", "value": 54, "unit": "%"},
      {"measurement": "Death Rate", "setting": "female mosquitoes; 0.1% rFOH, 5% sugar, CPDA, 25% Maple Syrup, 24 hrs, 24 hrs fasting, sugar feeder provided for free choice", "value": "26-47%"},
      {"measurement": "Death Rate", "setting": "female mosquitoes; 0.1% rFOH, 5% sugar, CPDA, 50% corn syrup, 24 hrs, 24 hrs fasting, sugar feeder provided for free choice", "value": "22-30%"},
      {"measurement": "death after 24 hours of feeding", "setting": "female mosquitoes; 0.1% rFOH, 10% sucrose in CPDA, free choice with 10% sucrose feeder", "value": 43, "unit": "%"},
      {"measurement": "death after 24 hours of feeding", "setting": "female mosquitoes; 0.1% rFOH, 10% sucrose in CPDA, single feeder", "value": 44, "unit": "%"},
      {"measurement": "Death Rate", "setting": "female mosquitoes; 0.1% rFOH, 10% sugar in CPDA, 24 hrs, 24 hrs fasting, sugar feeder not provided", "value": 65, "unit": "%"},
      {"measurement": "Death Rate", "setting": "female mosquitoes; 0.1% rFOH, 10% sugar in CPDA, 24 hrs, 24 hrs fasting, sugar plus CPDA feeder provided for free choice", "value": "59-80%"},
      {"measurement": "Death Rate", "setting": "female mosquitoes; 0.1% rFOH, 10% sugar in CPDA, 24 hrs, not fasted, sugar feeder provided for free choice", "value": 64, "unit": "%"},
      {"measurement": "Death Rate", "setting": "female mosquitoes; 0.1% rFOH, 10% sugar, no CPDA, 24 hrs, 24 hrs fasting, sugar feeder provided for free choice", "value": "44-50%"},
      {"measurement": "total death rate incl. residual death", "setting": "female mosquitoes; 0.1% rFOH, rFOH feeder replaced by sugar feeder, residual death within next 24 hours included", "value": "46-64%"},
      {"measurement": "death of female mosquitoes after 24 hours of feeding", "setting": "female mosquitoes; 0.15% rFOH", "value": "more than 90%"},
      {"measurement": "Death Rate", "setting": "female mosquitoes; 0.15% rFOH, 10% sucrose in CPDA, 24 hours feeding, two-choice with 10% sucrose feeder", "value": "over 80%"},
      {"measurement": "Death Rate", "setting": "female mosquitoes; 0.15% rFOH, 10% sugar in CPDA, 24 hrs, 24 hrs fasting, sugar feeder not provided", "value": "95-98%"},
      {"measurement": "Death Rate", "setting": "female mosquitoes; 0.15% rFOH, 10% sugar in CPDA, 24 hrs, 24 hrs fasting, sugar feeder provided for free choice", "value": "55-80%"},
      {"measurement": "time to death after ingestion", "setting": "female mosquitoes; 0.15% rFOH, female mosquitoes", "value": "2 to 5", "unit": "h"},
      {"measurement": "Death Rate", "setting": "female mosquitoes; 1% rFOH, 10% sucrose in CPDA, 24 hours feeding, two-choice with 10% sucrose feeder", "value": "over 80%"},
      {"measurement": "Death Rate", "setting": "female mosquitoes; 5% rFOH, 10% sugar in CPDA, 24 hrs, not fasted, sugar feeder not provided", "value": 94, "unit": "%"},
      {"measurement": "residual death in the next day", "setting": "female mosquitoes; after 24 hours feeding rFOH feeder removed, regular sugar feeder (10% sucrose) provided", "value": "5-20%"},
      {"measurement": "rFOH per mosquito corresponding to 0.15% rFOH", "setting": "female mosquitoes; assuming a female mosquito ingests as much as 0.6 μl of the composition, >90% death", "value": 0.001, "unit": "mg"},
      {"measurement": "Death Rate", "setting": "male mosquitoes", "value": 95, "unit": "%"},
      {"measurement": "MIC", "setting": "[1]", "value": 0.4, "unit": "%"},
      {"measurement": "MIC", "setting": "Escherishia coli DH5α", "value": "0.4% and 0.43%"},
      {"measurement": "MIC", "setting": "[2]", "value": 0.4, "unit": "%"}
    ]}
  ]
}
